Target: T1, GPR105 (Homo sapiens, UniProt Q15391)
T1 construct: gene P2RY14
T1 sequence (Q15391 1-338): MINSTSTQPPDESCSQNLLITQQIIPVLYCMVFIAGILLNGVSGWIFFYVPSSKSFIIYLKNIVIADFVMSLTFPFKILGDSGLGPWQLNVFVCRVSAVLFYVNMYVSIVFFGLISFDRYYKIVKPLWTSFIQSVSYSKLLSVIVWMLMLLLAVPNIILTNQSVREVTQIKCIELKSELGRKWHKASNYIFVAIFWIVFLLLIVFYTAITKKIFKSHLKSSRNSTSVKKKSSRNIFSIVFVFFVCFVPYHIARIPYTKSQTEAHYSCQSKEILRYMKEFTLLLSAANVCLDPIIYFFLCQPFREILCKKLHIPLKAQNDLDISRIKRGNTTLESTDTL
Test: cAMP-Glo luminescence assay in HEK293-hGPR105 cells (forskolin plus UDPG stimulated), antagonism
Type: cell-based

C/C=C/C#CC#C[C@@H](O)[C@@H](/C=C/CCCO)O[C@@H]1O[C@H](CO)[C@@H](O)[C@H](O)[C@H]1O [LBT, lobetyolin]
IC50: 5.1 µM

Source: publication PMC9005804, “GPR105-Targeted Therapy Promotes Gout Resolution as a Switch Between NETosis and Apoptosis of Neutrophils” (Frontiers in Immunology, 2022)
